# Test results from article PMC6349869, “The palladacycle complex AJ-5 induces apoptotic cell death while reducing autophagic flux in rhabdomyosarcoma cells” (Cell Death Discovery, 2019).
# Key:
# RD cells = assay: Autophagic flux by western blotting (p62; LC3II with bafilomycin A1), RD; format: cell-based, human
# Protocol: AJ-5, synthesized as previously described, was dissolved in dimethyl sulfoxide (DMSO) (D8418; Sigma Aldrich) to give a 5 mM AJ-5 stock which was stored at room temperature (RT) and used within 5 days. AJ-5 was diluted in cell culture medium to achieve the desired final concentration and a vehicle control (DMSO) of the same concentration was prepared simultaneously. Cells were treated at a confluency of 60%. For western blot experiments to determine autophagy flux, cells were treated with 200 nM bafilomycin A1 (B1793; Sigma Aldrich) for 2 h post AJ-5 treatment. Doxorubicin (z/26/0167; Teva Pharmaceutical Industries Ltd, Israel) was used as a positive control in Caspase-Glo experiments at a concentration of 0.5 µM.
# Cells were lysed at 4 °C in whole-cell lysis buffer (0.125 M Tris-HCl pH 6.8, 4% SDS, 0.2% glycerol, 0.1% β-mercaptoethanol and a pinch of bromophenol blue) and boiled for 10 min. Proteins were resolved by SDS-PAGE (6–15% gels) and transferred to Hybond ECL membranes (Amersham, UK). […] Densitometry readings were obtained using ImageJ v1.50i[58] and protein expression levels were represented as a ratio of protein of interest/p38 loading control normalized to the vehicletreated control sample where appropriate. […]
# [1] = system: SW1353, SW872, SW982, HT1080 and MG-63 cells; assay: Clonogenic assay, sarcoma subtypes; format: cell-based, human; settings: ¼ IC50, 24 h, all sarcoma subtypes
# Protocol: Cells were seeded in 6-well plates and treated the following day with IC50, ½ IC50, ¼ IC50 AJ-5 and vehicle. After 24 h, 800–4000 cells were seeded in 35 mm dishes in drug-free medium. Formation of colonies were monitored and after 7–21 days cells were fixed with 3:1 methanol:acetic acid and stained with 0.5% crystal violet (Sigma Aldrich) in 100% methanol. Colonies were imaged and percentage colony area was determined using ImageJ v1.50i[58] and the plugin ColonyArea[59]. Colony area was determined for each drug concentration and expressed as a percentage of vehicletreated control.
# Fig. S2 AJ-5 is cytotoxic in a range of sarcoma subtypes. […] Graphs show mean cell viability as a percentage of vehicle control ± SEM for each concentration of AJ-5 determined from three independent experiments performed in quadruplicate. […] (B) Selectivity indices (SIs) were determined for each cell line by dividing the IC50 of each non-malignant cell line (Fig. 1C) including normal fibroblast cell lines (FG0 and DMB) and mesenchymal stem cell line (A10021501) by the IC50 of each sarcoma cell line. […] Colonies were stained with crystal violet and images from three independent repeats were quantified using the ImageJ plugin ColonyArea. […] Data was analysed using GraphPad Prism 6.0 and a parametric unpaired t-test was performed *p<0.05, **p<0.01, ***p<0.001.
structure (smiles),measurement,setting,value
CC(C)c1cccc(C(C)C)c1[N+]1=Cc2cccc[c]2[Pd-2]1([Cl])[P+](CC[P+](c1ccccc1)(c1ccccc1)[Pd-2]1([Cl])[c]2ccccc2C=[N+]1c1c(C(C)C)cccc1C(C)C)(c1ccccc1)c1ccccc1 (stereo not drawn) [AJ-5],Autophagic flux judged by p62 levels,"RD cells; 0.1 µM or IC50, 24 and 48 h",increases autophagic flux
same,"LC3II in the presence of bafilomycin A1, compared with vehicle",RD cells; IC50 24 h then 200 nM bafilomycin A1 2 h,negligible change in LC3II
same,Ability of sarcoma cells to survive and proliferate (colony area),[1],significantly reduced
